Measured values: US12364709B2, “Bioavailable poly amines” (AMINEX THERAPEUTICS, INC., priority 2016, dated 2025)
Where “and” joins values, the source holds several entries; their conditions need not be identical. Identical values can stand only once. Like-named read-outs stand apart in the source and are kept apart here.

Assay: 5 day repeat oral dosing PK of AMXT 1501 dicaprate
Format: in vivo, beagle dogs
Description: The pharmacokinetic (PK) profiles after dosing on Days 1 and 5 were evaluated using standard noncompartmental methods. The following experimental design was used. Beagle dogs, 1 or 2 males and 1 or 2 females for a total of 3 dogs per group, were randomly assigned to the four treatment groups as outlined in Table 19. AMXT 1501 dicaprate salt was administered in tablet form once daily for five days. […] Plasma samples were analyzed for AMXT 1501 concentration via a liquid chromatography/mass spectrometry (LC/MS-MS) procedure and the resulting concentration versus time data were used to estimate individual animal PK parameters using noncompartmental analysis (NCA).

[1] = 8 mg/kg PO once daily, Day 5, individual animals
[2] = 8 mg/kg PO, Day 1, individual animals
[3] = 16 mg/kg PO once daily, Day 5, individual animals
[4] = 16 mg/kg PO, Day 1, individual animals
[5] = 32 mg/kg PO once daily, Day 5, individual animals
[6] = 32 mg/kg PO, Day 1, individual animals

SMILES: CCCCCCCCCCCCCCCC(=O)NCCCC[C@@H](N)C(=O)NCCCNCCCCNCCCN [AMXT 1501 dicaprate]
- AUC(0-t) [1]: 5620 ng·h/mL and 3100 ng·h/mL
- Cmax [1]: 360 ng/mL and 254 ng/mL
- t1/2 [1]: 7.82 h
- AUC(0-t) [2]: 2050 ng·h/mL
- Cmax [2]: 168 ng/mL
- AUC(0-t) [3]: 11000 ng·h/mL
- Cmax [3]: 454 ng/mL and 714 ng/mL
- Tmax [3]: 12.0 h
- AUC(0-t) [4]: 3190 ng·h/mL and 3300 ng·h/mL
- Cmax [4]: 249 ng/mL
- t1/2 [4]: 36.2 h and 10.3 h
- AUC(0-t) [5]: 11000 ng·h/mL and 11100 ng·h/mL
- Cmax [5]: 662 ng/mL and 708 ng/mL
- AUC(0-t) [6]: 5830 ng·h/mL and 4900 ng·h/mL
- Cmax [6]: 446 ng/mL and 333 ng/mL
- t1/2 [6]: 27.1 h and 10.0 h
- half-life (both sexes, beagle, dog, plasma, oral, Day 1, animals where it could be estimated, read-out: mean Day 1 t1/2 values, range across groups): 7.99 to 23.2 h
- half-life at 5 days (both sexes, beagle, dog, plasma, oral, Day 5, animals where it could be estimated, read-out: mean Day 5 t1/2 values, range across groups): 8.69 to 20.8 h
- AUC(0-t) (both sexes, beagle, dog, plasma, po, 8 mg/kg, 8 mg/kg PO once daily, Day 5, group mean, read-out: AUC0-t Mean): 4750 ng·h/mL
- Cmax (both sexes, beagle, dog, plasma, po, 8 mg/kg, 8 mg/kg PO once daily, Day 5, group mean, read-out: Cmax Mean): 340 ng/mL
- Tmax (both sexes, beagle, dog, plasma, po, 8 mg/kg, 8 mg/kg PO once daily, Day 5, group mean, read-out: Tmax Mean): 5.33 h
- half-life (both sexes, beagle, dog, plasma, po, 8 mg/kg, 8 mg/kg PO once daily, Day 5, group mean, read-out: t1/2 Mean (converted)): 8.69 h
- AUC(0-t) (both sexes, beagle, dog, plasma, po, 8 mg/kg, 8 mg/kg PO once daily, Day 5, individual animals, read-out: AUC0-t): 5530 ng·h/mL
- Cmax (both sexes, beagle, dog, plasma, po, 8 mg/kg, 8 mg/kg PO once daily, Day 5, individual animals, read-out: Cmax): 405 ng/mL
- Tmax (both sexes, beagle, dog, plasma, po, 8 mg/kg, 8 mg/kg PO once daily, Day 5, individual animals, read-out: Tmax): 8 h
- half-life (both sexes, beagle, dog, plasma, po, 8 mg/kg, 8 mg/kg PO once daily, Day 5, individual animals, read-out: t1/2 (converted)): 9.55 h
- AUC(0-t) (both sexes, beagle, dog, plasma, po, 8 mg/kg, 8 mg/kg PO, Day 1, group mean, read-out: AUC0-t Mean): 2030 ng·h/mL
- Cmax (both sexes, beagle, dog, plasma, po, 8 mg/kg, 8 mg/kg PO, Day 1, group mean, read-out: Cmax Mean): 154 ng/mL
- Tmax (both sexes, beagle, dog, plasma, po, 8 mg/kg, 8 mg/kg PO, Day 1, group mean, read-out: Tmax Mean): 6 h
- half-life (both sexes, beagle, dog, plasma, po, 8 mg/kg, 8 mg/kg PO, Day 1, group mean, read-out: t1/2 Mean (converted)): 9.3 h
- AUC(0-t) (both sexes, beagle, dog, plasma, po, 8 mg/kg, 8 mg/kg PO, Day 1, individual animals, read-out: AUC0-t): 2010 ng·h/mL
- Cmax (both sexes, beagle, dog, plasma, po, 8 mg/kg, 8 mg/kg PO, Day 1, individual animals, read-out: Cmax): 139 ng/mL
- Tmax (both sexes, beagle, dog, plasma, po, 8 mg/kg, 8 mg/kg PO, Day 1, individual animals, read-out: Tmax): 8 h
- half-life (both sexes, beagle, dog, plasma, po, 8 mg/kg, 8 mg/kg PO, Day 1, individual animals, read-out: t1/2 (converted)): 9.3 h
- AUC(0-t) (both sexes, beagle, dog, plasma, po, 16 mg/kg, 16 mg/kg PO once daily, Day 5, group mean, read-out: AUC0-t Mean): 8890 ng·h/mL
- Cmax (both sexes, beagle, dog, plasma, po, 16 mg/kg, 16 mg/kg PO once daily, Day 5, group mean, read-out: Cmax Mean): 564 ng/mL
- Tmax (both sexes, beagle, dog, plasma, po, 16 mg/kg, 16 mg/kg PO once daily, Day 5, group mean, read-out: Tmax Mean): 8 h
- half-life (both sexes, beagle, dog, plasma, po, 16 mg/kg, 16 mg/kg PO once daily, Day 5, group mean, read-out: t1/2 Mean (converted)): 11.7 h
- AUC(0-t) (both sexes, beagle, dog, plasma, po, 16 mg/kg, 16 mg/kg PO once daily, Day 5, individual animals, read-out: AUC0-t): 9410 ng·h/mL
- Cmax (both sexes, beagle, dog, plasma, po, 16 mg/kg, 16 mg/kg PO once daily, Day 5, individual animals, read-out: Cmax): 523 ng/mL
- half-life (both sexes, beagle, dog, plasma, po, 16 mg/kg, 16 mg/kg PO once daily, Day 5, individual animals, read-out: t1/2 (converted)): 11.7 h
- AUC(0-t) (both sexes, beagle, dog, plasma, po, 16 mg/kg, 16 mg/kg PO, Day 1, group mean, read-out: AUC0-t Mean): 3450 ng·h/mL
- Cmax (both sexes, beagle, dog, plasma, po, 16 mg/kg, 16 mg/kg PO, Day 1, group mean, read-out: Cmax Mean): 238 ng/mL
- Tmax (both sexes, beagle, dog, plasma, po, 16 mg/kg, 16 mg/kg PO, Day 1, group mean, read-out: Tmax Mean): 5.33 h
- half-life (both sexes, beagle, dog, plasma, po, 16 mg/kg, 16 mg/kg PO, Day 1, group mean, read-out: t1/2 Mean (converted)): 23.2 h
- AUC(0-t) (both sexes, beagle, dog, plasma, po, 16 mg/kg, 16 mg/kg PO, Day 1, individual animals, read-out: AUC0-t): 3870 ng·h/mL
- Cmax (both sexes, beagle, dog, plasma, po, 16 mg/kg, 16 mg/kg PO, Day 1, individual animals, read-out: Cmax): 202 ng/mL
- Tmax (both sexes, beagle, dog, plasma, po, 16 mg/kg, 16 mg/kg PO, Day 1, individual animals, read-out: Tmax): 8 h
- AUC(0-t) (both sexes, beagle, dog, plasma, po, 32 mg/kg, 32 mg/kg PO once daily, Day 5, group mean, read-out: AUC0-t Mean): 13000 ng·h/mL
- Cmax (both sexes, beagle, dog, plasma, po, 32 mg/kg, 32 mg/kg PO once daily, Day 5, group mean, read-out: Cmax Mean): 837 ng/mL
- Tmax (both sexes, beagle, dog, plasma, po, 32 mg/kg, 32 mg/kg PO once daily, Day 5, group mean, read-out: Tmax Mean): 6.67 h
- half-life (both sexes, beagle, dog, plasma, po, 32 mg/kg, 32 mg/kg PO once daily, Day 5, group mean, read-out: t1/2 Mean (converted)): 10.7 h
- AUC(0-t) (both sexes, beagle, dog, plasma, po, 32 mg/kg, 32 mg/kg PO once daily, Day 5, individual animals, read-out: AUC0-t): 16800 ng·h/mL
- Cmax (both sexes, beagle, dog, plasma, po, 32 mg/kg, 32 mg/kg PO once daily, Day 5, individual animals, read-out: Cmax): 1140 ng/mL
- Tmax (both sexes, beagle, dog, plasma, po, 32 mg/kg, 32 mg/kg PO once daily, Day 5, individual animals, read-out: Tmax): 4 h
- half-life (both sexes, beagle, dog, plasma, po, 32 mg/kg, 32 mg/kg PO once daily, Day 5, individual animals, read-out: t1/2 (converted)): 10.7 h
- AUC(0-t) (both sexes, beagle, dog, plasma, po, 32 mg/kg, 32 mg/kg PO, Day 1, group mean, read-out: AUC0-t Mean): 5660 ng·h/mL
- Cmax (both sexes, beagle, dog, plasma, po, 32 mg/kg, 32 mg/kg PO, Day 1, group mean, read-out: Cmax Mean): 447 ng/mL
- Tmax (both sexes, beagle, dog, plasma, po, 32 mg/kg, 32 mg/kg PO, Day 1, group mean, read-out: Tmax Mean): 5.33 h
- half-life (both sexes, beagle, dog, plasma, po, 32 mg/kg, 32 mg/kg PO, Day 1, group mean, read-out: t1/2 Mean (converted)): 18.6 h
- AUC(0-t) (both sexes, beagle, dog, plasma, po, 32 mg/kg, 32 mg/kg PO, Day 1, individual animals, read-out: AUC0-t): 6250 ng·h/mL
- Cmax (both sexes, beagle, dog, plasma, po, 32 mg/kg, 32 mg/kg PO, Day 1, individual animals, read-out: Cmax): 563 ng/mL
- Tmax (both sexes, beagle, dog, plasma, po, 32 mg/kg, 32 mg/kg PO, Day 1, individual animals, read-out: Tmax): 8 h
- Tmax (both sexes, beagle, dog, plasma, po, 32 mg/kg, single or repeat once daily PO 8, 16, or 32 mg/kg, postdose, read-out: Tmax observed): 4 to 12 h
